# Source: article PMC7038139, “Novel Peptide CM 7 Targeted c-Met with Antitumor Activity” (Molecules, 2020)
# Entries after “also recorded” stand apart in the source; their conditions may differ.
# Key:
# MKN-45 cells [1] = assay: Cell cycle distribution assay; assay type: cell-based, Human; conditions: 48 h; compared with the control group; n = 3
# Description: According to the cell cycle detection kit (Keygen) instructions, MKN-45 cells were collected and seeded in a six-well culture plate at the concentration 2 × 10^6/mL overnight. Then, the cells were washed with PBS and treated with peptide CM 7 at the indicated concentration for 48 h. The experiment was performed in triplicate. A MACS Quant flow cytometer (Miltenyi Biotec GmbH, Bergisch Gladbach, Germany) was used to detect the cell cycle profile, and FlowJo software version 7.6 (FlowJo LLC, Ashland, USA) was used to analyze the data.
# MKN-28 cells = assay: Cell proliferation assay, MKN-28; assay type: cell-based, Human; conditions: CM 7, various concentrations; 4 days; serum-free medium; cell count; means of six determinations
# Description: (§1) Human gastric cancer cell line MKN-45 cells were from the Chinese Academy of Medical Sciences, Beijing, China. Human gastric cancer cell line MKN-28 cells, the human glioma cell line U87 cells, and MDCK cells were obtained from the American Type Culture Collection (ATCC). The MKN-45 and MKN-28 cells were grown under a humidified atmosphere of 5% CO2 at 37 °C in RPMI 1640 medium (Biological Industries, Israel), supplemented with 10% fetal bovine serum (FBS, Biological Industries, Israel), 2 mmol/L L-glutamine (Gibco, Life Technologies, Grand Island, NY, USA), 100 U/mL penicillin, and 100 μg/mL streptomycin (Invitrogen, Carlsbad, CA, USA). MDCK and U87 cells were cultured under a humidified atmosphere of 5% CO2 at 37 °C in Dulbecco’s modified Eagle’s medium (DMEM) (Gibco, Life Technologies, Grand Island, NY, USA), supplemented with 10% FBS, 2 mmol/L L-glutamine (Gibco, Life Technologies, Grand Island, NY, USA), 100 U/mL penicillin, and 100 μg/mL streptomycin (Invitrogen, Carlsbad, CA, USA).
# (§2) As described in the literature, MKN-45, MKN-28, and U87 cells were seeded into 48-well culture plates (6500 cells/well) and cultured overnight. […] After 4 days, the cells were trypsinized and counted by a cell counter. […]
# [2] = test system: c-Met and its downstream signaling molecules in U87 cells; assay: Western blot of c-Met signaling, U87 (HGF-induced); assay type: cell-based, human; conditions: 24 h
# Description: (§3) Western blot analysis was performed using an extraction buffer as described. MKN-45, MKN-28 and U87 cells were cultured in serum-free medium overnight, then treated with the indicated dose of peptide CM 7 for 24 h at 37 °C after stimulated without or with HGF for 15 min. Next, total cell lysates were separated by 12% SDS-polyacrylamide gel (SDS-PAGE) and transferred to polyvinylidene difluoride (PVDF) membranes. The PVDF membranes were probed with following primary antibodies: anti-phospho-Met (Tyr1234/1235, (Cell Signaling Technology, Beverly, MA, USA), anti-Met (Affinity, USA), anti-phospho-AKT (Ser473, (Affinity, USA)), anti-AKT (Affinity, USA), anti-phospho-Erk1/2 (Thr202/Tyr204, (Affinity, USA)), anti-Erk1/2 (Affinity, USA), anti-E-cadherin (WanleiBio, Shengyang, China), and anti-GAPDH (Multi Sciences, Hangzhou, China). Then, horseradish-peroxidase-conjugated anti-rabbit IgG was used as a second antibody. The immunoreactive proteins were exposed using an enhanced chemiluminescence detection reagent (WanleiBio, Shengyang, China). After sacrificing the mice and isolating the tumor tissue, Western blot was performed as previously described.
# MKN-45 cells [3] = assay: Cell proliferation assay, MKN-45; assay type: cell-based, Human; conditions: CM 7, various concentrations; 4 days; serum-free medium; cell count; means of six determinations
# Description: as §1, §2
# human c-Met protein = assay: Affinity to c-Met protein (as stated in abstract and discussion); assay type: binding; conditions: in words only; Kd not given
# MKN-45 cells [4] = assay: Wound healing (migration) assay; assay type: cell-based, Human; conditions: 1% FBS, 48 h, n = 3, dose-dependent
# Description: For the wound healing assay, MKN-45 cells (4 × 10^4 cells/well) were seeded in a 48-well culture plate. When the cells were almost completely fused, a sterile 200 μL pipette tip was used to generate a straight wound line across the monolayer cell. Then, the cells were washed with PBS and incubated in RPMI 1640 medium containing 1% FBS with CM 7 or Crizotinib at the indicated concentration for 48 h. The experiment was performed in triplicate, and the cell migration toward the gap was captured using the microscope.
# [5] = test system: c-Met and its downstream signaling molecules in MKN-45 cells; assay: Western blot of c-Met signaling, MKN-45; assay type: cell-based, Human; conditions: 24 h
# Description: as §3
# [6] = test system: c-Met and its downstream signaling molecules in MKN-28 cells; assay: Western blot of c-Met signaling, MKN-28; assay type: cell-based, Human
# Description: as §3
# [7] = Body weight / tolerability in tumor-bearing mice; assay type: in vivo, Balb/c nude mice; conditions: each peptide group (5, 10, 20 mg/kg s.c. twice a day, 28 days)
# Description: Four-to-five-week-old female Balb/c nude mice, housed in specific pathogen-free conditions, were used to evaluate antitumor activity in vivo. All animal studies were performed according to the institutional ethical guidelines for animal care.
# MKN-45 cells at a density of 5 × 10^6 in 200 μL were injected subcutaneously into the flank of the mice. CM 7 (5, 10, or 20 mg/kg) was injected subcutaneously for each group twice a day for four weeks. As a positive control, Crizotinib (50 mg/kg) was given to tumor-bearing mice by gavage once a day for a total of 28 days. The tumor volume was measured with calipers in two dimensions: tumor volume = 1/2 × a × b^2, where a is the length of the tumor, and b is the width of the tumor. All of the mice were sacrificed on day 42, and the tumor tissue was isolated and weighed.
# Figure S1: The chemical structure, molecular mass, and purity of peptide FITC-CM 7. […] (C) The purity of peptide FITC-CM 7 was determined by high-performance liquid chromatography (HPLC) to be 97.3%. […] (C) The purity of peptide FITC-CM 7 was determined by HPLC to be 96.7%. Figure S3: The mean body weight of tumor-bearing mice treated daily for four weeks with vehicle (0.2% DMSO) or Crizotinib (50 mg/kg) by gavage, and the tested peptide CM 7 or vehicle (PBS) that was subcutaneously injected twice a day for four weeks was measured every other day during the study. […]
substance,measurement,setting,value
"DQIIANN [CM 7, Novel peptide DQIIANN targeting the tyrosine kinase receptor c-Met]",Cell cycle arrest,MKN-45 cells [1],significantly arrested in the S phase
same,Inhibition of cell proliferation,MKN-28 cells,no effect
same,Expression of E-cadherin,[2],increase the expression of E-cadherin
same,"Phosphorylation of c-Met, Akt and Erk","[2]; HGF 15 min, dose-dependent",effectively inhibit
same,Inhibition of cell proliferation,MKN-45 cells [3],moderate regulation; also recorded: inhibit the proliferation of MKN-45 or U87 cells to a certain extent with considerable dose dependence
same,Affinity to c-Met,human c-Met protein,specific binding to c-Met with high affinity
same,Inhibition of cell migration,MKN-45 cells [4],"moderate regulation; also recorded: significantly inhibit cell invasion (Figure 7A,C) and cell migration"
same,Expression of E-cadherin,[5],increase the expression of E-cadherin
same,"Phosphorylation of c-Met, Akt and Erk",[5]; dose-dependent,effectively inhibit
same,Expression of E-cadherin,[6],no effect
same,"Phosphorylation of c-Met, Akt and Erk",[6],not MKN-28 cells; also recorded: no effect
same,Weight loss of mice,[7],no significant weight loss
same,Tolerability / toxicity,[7]; from body weight,well tolerated and slightly or nontoxic
